Consider twelve compounds from article PMC7582667, “A Series of Isatin-Hydrazones with Cytotoxic Activity and CDK2 Kinase Inhibitory Activity: A Potential Type II ATP Competitive Inhibitor” (Molecules, 2020).

Series [1] relates to MCF7 (human breast adenocarcinoma) cell lines. The series is described as follows: MTT cytotoxicity assay, MCF7. The series is classed as cell-based. The note with it: MCF7 cells, triplicates. As to the method:
(§1) The cytotoxicity of the synthesized compounds was evaluated by MTT assay, as previously described. Two cancer cell lines, MCF7 (human breast adenocarcinoma) and A2780 (human ovary adenocarcinoma), were used in this study, which were obtained from the ATCC (Rockville, MD, USA). They were sub-cultured in RPMI-1640 media (supplemented with 10% FBS and 1% antibiotics) at 37 °C and 5% CO2. Additionally, compounds were prepared at the same medium to obtain serial dilutions (50, 25, 19,1 and 0.1 µM). The two cell lines were separately cultured in 96-well plates (3 × 10^3/well) and incubated at 37 °C overnight. The following day, before treating the cells with the compounds, each well of the T0 plate was treated with 50 μL MTT solution (2 mg/mL in phosphate buffered saline) and then incubated for 2–4 h. The media were aspirated, and the formazan crystals were solubilized by adding 150 µL DMSO. Absorbance was read on a multi-plate reader (BioRad) at […]. Optical density of the purple formazan A550 was proportional to the number of viable cells. […] The data were obtained from triplicates and analyzed using statistical software.
(Formazan colour is commonly taken as a measure of viable cells.)

In series [2] the test system is A2780 (human ovary adenocarcinoma) cell lines. The series is described as follows: MTT cytotoxicity assay, A2780. The series is classed as cell-based. Conditions: A2780 cells; for IC50: Homo sapiens, A2780, MTT assay, triplicates; for inhibitory activity against A2780 cell lines (in words): MTT assay. As to the method: as §1
Series [3] concerns the target T1, CDK2/CyclinA2 (Homo sapiens, UniProt P24941).
T1 construct: purchased #79599
The series is described as follows: In vitro CDK2 inhibitory activity (CDK2 Assay Kit, Kinase-Glo MAX luminescence). The series is classed as biochemical. The note with it: triplicate measurements, read-out: CDK2 Protein Kinase (IC50 in µM). As to the method:
The CDK2 Assay Kit is designed to measure CDK2/CyclinA2 activity for screening and profiling applications, using Kinase-Glo® MAX as a detection reagent. The CDK2 Assay Kit comes in a convenient 96-well format, with enough purified recombinant CDK2/CyclinA2 enzyme, CDK substrate peptide, ATP and kinase assay buffer for 100 enzyme reactions. […] The CDK2/CyclinA2 activity at a single dose concentration of 10μM was performed, where the Kinase-Glo MAX luminescence kinase assay kit (Promega#V6071) was used. The compounds were diluted in 10% DMSO and 5 μL of the dilution was added to a 50 μL reaction so that the final concentration of DMSO was 1% in all of the reactions. All of the enzymatic reactions were conducted at 30 °C for 40 min. The 50 μL reaction mixture contained 40 mM Tris, pH 7.4, 10 mM MgCl2, 0.1 mg/mL BSA, 1 mM DTT, […], Kinase substrate and the enzyme (CDK2/CyclinA2). After the enzymatic reaction, 50 μL of Kinase-Glo® MAX Luminescence kinase assay solution was added to each reaction and the plates were incubated for 5 min at room temperature. Luminescence signal was measured using a Bio Tek Synergy 2 microplate reader.

Values joined by “and” are separate entries in the source; they are usually repeats but may differ in a detail not shown here. Equal values may be shown once.

Consider `O=C1Nc2ccccc2C1=NN=Cc1c(Cl)cccc1Cl` [Compound 4j, 3-((2,6-Dichlorobenzylidene)hydrazono)indolin-2-one], for which the melting point (commonly the temperature, or range, at which the solid turns liquid) lay in the range of 286 to 287 °C. Besides, half-maximal inhibition in series [1] (IC50) required 1.51 ± 0.09 µM. Besides, in series [2], half-maximal inhibition (IC50) required 26 ± 2.24 µM and the “inhibitory activity against A2780 cell lines (in words)” value (“inhibitory activity” below) is recorded as “a little inhibitory activity”. Further, in series [3], the IC50 (in general, the midpoint of a concentration-inhibition curve) was 0.245 µM and 0.246 µM.

In the case of `COc1cc(C)c(C=NN=C2C(=O)Nc3ccccc32)c(C)c1` [Compound 4h, 3-((4-Methoxy-2,6-dimethylbenzylidene)hydrazono)indolin-2-one], the melting point lay within 251 to 252 °C. In addition, in series [1], the concentration for half-maximal inhibition (IC50) turned out to be 25.78 ± 0.13 µM. The compound also had a 50% inhibitory concentration (IC50) in series [2] of over 50 µM.

Regarding `O=C1Nc2ccccc2C1=NN=Cc1ccc(Br)cc1` [Compound 4g, 3-((4-Bromobenzylidene)hydrazono)indolin-2-one], the melting point was 267 to 268 °C. The compound further displayed a 50% inhibitory concentration (IC50) in series [1] of 15.7 ± 0.78 µM. Besides, in series [2], the concentration for half-maximal inhibition (IC50) was over 50 µM.

Compound `CSc1ccc(C=NN=C2C(=O)Nc3ccccc32)cc1` [Compound 4d, 3-((4-(Methylthio)benzylidene)hydrazono)indolin-2-one] yielded a melting point of 204 to 205 °C. The compound also came in with an IC50 in series [1] of 24 ± 2.61 µM. This compound came in with an IC50 in series [2] of over 50 µM.

Take `Cc1cccc(C=NN=C2C(=O)Nc3ccccc32)c1` [Compound 4b, 3-((3-Methylbenzylidene)hydrazono)indolin-2-one]: the melting point was 183 to 184 °C. In series [1], this compound returned an IC50 of 14.7 µM. In series [2], the IC50 was over 50 µM.

Compound `COc1ccc(C=NN=C2C(=O)Nc3ccccc32)c(O)c1` [Compound 4i, 3-((2-Hydroxy-4-methoxybenzylidene)hydrazono)indolin-2-one] had a melting point of 242 to 243 °C. The half-maximal inhibitory concentration (IC50) in series [1] stood at 7.77 ± 0.008 µM. Besides, the IC50 in series [2] was over 50 µM.

`O=C1Nc2ccccc2C1=NN=Cc1c(F)cccc1Cl` [Compound 4k, 3-((2-Chloro-6-fluorobenzylidene)hydrazono)indolin-2-one]: the IC50 in series [1] is 3.56 ± 0.31 µM; in series [2], 27 ± 3.2 µM; in series [3], 0.3 µM and 0.301 µM. Further, in series [2], the “inhibitory activity” value is listed as “a little inhibitory activity”.

Consider `O=C1Nc2ccccc2C1=NN=Cc1ccccc1Br` [Compound 4e, 3-((2-Bromobenzylidene)hydrazono)indolin-2-one], for which the melting point lay in the range of 233 to 234 °C. Moreover, in series [1], the concentration for half-maximal inhibition (IC50) turned out to be 5.46 ± 0.71 µM. In addition, in series [2], the 50% inhibitory concentration (IC50) stood at 19 ± 2.52 µM and the “inhibitory activity” value is reported as “a little inhibitory activity”.

With `O=C1Nc2ccccc2C1=NN=Cc1cccc(Br)c1` [Compound 4f, 3-((3-Bromobenzylidene)hydrazono)indolin-2-one], the melting point fell in the range of 182 to 183 °C. The compound further returned an IC50 in series [1] of 9.07 ± 0.59 µM. For the same compound, in series [2], the midpoint of inhibition, the IC50, lay at 25 ± 2.82 µM and the “inhibitory activity” value is “a little inhibitory activity”.

As for `Cc1ccc(C=NN=C2C(=O)Nc3ccccc32)cc1` [Compound 4c, 3-((4-Methylbenzylidene)hydrazono)indolin-2-one], the melting point fell in the range of 230 to 231 °C. The same compound displayed a half-maximal inhibitory concentration (IC50) in series [1] of 32.5 ± 0.52 µM. Besides, in series [2], the IC50 is over 50 µM.

The compound `Cc1ccccc1C=NN=C1C(=O)Nc2ccccc21` [Compound 4a, 3-((2-Methylbenzylidene)hydrazono)indolin-2-one] showed a melting point of 198 to 199 °C. This compound also came in with an IC50 in series [1] of 10.82 ± 0.05 µM. Besides, the concentration for half-maximal inhibition (IC50) in series [2] is over 50 µM.

Consider `COc1cccc2c1C(=O)c1c(O)c3c(c(O)c1C2=O)C[C@@](O)(C(=O)CO)C[C@@H]3O[C@H]1C[C@H](N)[C@H](O)[C@H](C)O1` [Doxorubicin, reference compound], for which the IC50 in series [1] turned out to be 3.1 ± 0.29 µM; in series [2] it was 0.2 ± 0.03 µM.
